Measured values reported in patent US20260234130A1, “EP2 Antagonist Compounds” (Reservoir Neuroscience, Inc., priority 2022, published 2026).

Target: T1, EP2 receptor (Homo sapiens, UniProt P43116)
T1 construct: expressed in transfected cells; host or cells: CHO-K1 cells (ATCC), transient transfection with FuGENE 6
Test: EP2 potency assay (cAMP TR-FRET, LANCE Ultra cAMP kit) in transfected CHO-K1 cells stimulated with PGE2 at EC80
Format: cell-based
Conditions: Table (V), EP2 antagonism, CHO-K1 cells expressing EP2, PGE2 at EC80
Experimental: Compound potency was measured using a cAMP TR-FRET assay. CHO-K1 cells (ATCC) were seeded at a density of 9.75×105 in 6 cm plates, and then on the following day cell media was changed to Opti-Mem I reduced serum media (Gibco), and transfected with a plasmid for expression of the EP2 receptor (the target receptor of interest), using the FuGENE 6 Transfection reagent (Promega). After 6 hours incubation, the cell media was replaced with F12 medium supplemented with 10% FBS and 100 U/ml Pen-Strep. 24 hours after transfection, cells were harvested and seeded at a density of 3000 cells/well in a 384 well plate to perform the cAMP assay, using the LANCE Ultra cAMP assay kit (PerkinElmer). For each test compound of interest, 10 nl/well of serially diluted test compound was added to each well, resulting in a range of 10 serially diluted compound concentrations from 10000 nM to 0.038 nM, with duplicate wells for each concentration. Plates were then centrifuged at 1000 rpm for 1 min, agitated at 600 rpm at R.T. for 2 min, and incubated at 25° C. for 5 min. The reference agonist, prostaglandin E2 (MCE), was added to each well at the appropriate concentration to reach its EC80 value. Plates were then centrifuged at 1000 rpm for 1 min, agitated at 600 rpm at R.T. for 2 min, and incubated at 25° C. for 30 min. To measure levels of cAMP, 5 μl/well of Eu-cAMP working solution and 5 μl/well of Ulight-anti-cAMP working solution were added to each well, and the plate was centrifuged at 1000 rpm for 1 min, agitated at 600 rpm at R.T. for 2 min, and incubated at 25° C. for 15 min. Levels of TR-FRET fluorescence were measured in each well using an EnVision microplate reader (excitation wavelength=337 nm and emission wavelength=615 and 665 nm). A dose-response curve was prepared by plotting percent inhibition for each compound concentration, and then IC50 was calculated by fitting a curve to the plotted values and extrapolating the IC50 concentration. […] Potency data is grouped into categories of AA (IC50<100 nM); A (IC50=100 to 500 nM); B (IC50=500 nM to […]); C (IC50=1 μM to 5 μM); and D (IC50>5 μM).

T1 sequence (P43116 whole entry): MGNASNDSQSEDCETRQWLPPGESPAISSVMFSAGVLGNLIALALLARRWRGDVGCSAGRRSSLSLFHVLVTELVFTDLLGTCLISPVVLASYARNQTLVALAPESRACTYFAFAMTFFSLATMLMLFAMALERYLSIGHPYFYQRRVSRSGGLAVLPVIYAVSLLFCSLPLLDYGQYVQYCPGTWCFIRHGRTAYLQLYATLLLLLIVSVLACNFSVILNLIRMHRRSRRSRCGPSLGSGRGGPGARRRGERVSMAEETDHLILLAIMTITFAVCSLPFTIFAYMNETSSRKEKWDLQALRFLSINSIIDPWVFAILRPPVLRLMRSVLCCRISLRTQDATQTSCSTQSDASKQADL

Row | Structure (SMILES) | IC50 [nM]
1 | Fc1ccc2c(ccn2-c2cc(Cl)c3c(c2)CN(Cc2cnc(-c4nnn[nH]4)nc2)CCO3)c1 [II-22, 4-((2-(1H-tetrazol-5-yl)pyrimidin-5-yl)methyl)-9-chloro-7-(5-fluoro-1H-indol-1-yl)-2,3,4,5-tetrahydrobenzo[f][1,4]oxazepine] | < 100
2 | Nc1cc(CN2CCOc3c(Cl)cc(-n4ccc5cc(F)ccc54)cc3C2)cnn1 [II-23, 5-((9-chloro-7-(5-fluoro-1H-indol-1-yl)-2,3-dihydrobenzo[f][1,4]oxazepin-4(5H)-yl)methyl)pyridazin-3-amine] | 500 to 1000
3 | Cc1nc(=O)[nH]c(C)c1CN1CCOc2c(Cl)cc(-n3ccc4cc(F)ccc43)cc2C1 [II-24, 5-((9-chloro-7-(5-fluoro-1H-indol-1-yl)-2,3-dihydrobenzo[f][1,4]oxazepin-4(5H)-yl)methyl)-4,6-dimethylpyrimidin-2(1H)-one] | 500 to 1000
4 | CS(=O)(=O)NC(=O)c1ncc(CN2CCOc3c(Cl)cc(-n4ccc5cc(F)ccc54)cc3C2)cn1 [II-25, 5-((9-chloro-7-(5-fluoro-1H-indol-1-yl)-2,3-dihydrobenzo[f][1,4]oxazepin-4(5H)-yl)methyl)-N-(methylsulfonyl)pyrimidine-2-carboxamide] | < 100
5 | Fc1ccc2c(ccn2-c2cc(Cl)c3c(c2)CN(Cc2cnc(C4=NCCN4)nc2)CCO3)c1 [II-26, 9-chloro-4-((2-(4,5-dihydro-1H-imidazol-2-yl)pyrimidin-5-yl)methyl)-7-(5-fluoro-1H-indol-1-yl)-2,3,4,5-tetrahydrobenzo[f][1,4]oxazepine] | > 5000
6 | Fc1ccc2c(ccn2-c2cc(Cl)c3c(c2)CN(Cc2cnc4[nH]ccc4c2)CCO3)c1 [II-27, 4-((1H-pyrrolo[2,3-b]pyridin-5-yl)methyl)-9-chloro-7-(5-fluoro-1H-indol-1-yl)-2,3,4,5-tetrahydrobenzo[f][1,4]oxazepine] | 100 to 500
7 | Cc1nc(Cl)nc(C)c1CN1CCOc2c(Cl)cc(-n3ccc4cc(F)ccc43)cc2C1 [II-28, 9-chloro-4-((2-chloro-4,6-dimethylpyrimidin-5-yl)methyl)-7-(5-fluoro-1H-indol-1-yl)-2,3,4,5-tetrahydrobenzo[f][1,4]oxazepine] | 1000 to 5000
8 | COc1ncncc1CN1CCOc2c(Cl)cc(-n3ccc4cc(F)ccc43)cc2C1 [II-29, 9-chloro-7-(5-fluoro-1H-indol-1-yl)-4-((4-methoxypyrimidin-5-yl)methyl)-2,3,4,5-tetrahydrobenzo[f][1,4]oxazepine] | 500 to 1000
9 | Fc1ccc2c(ccn2-c2cc(Cl)c3c(c2)CN(Cc2cnc4[nH]ncc4c2)CCO3)c1 [II-31, 4-((1H-pyrazolo[3,4-b]pyridin-5-yl)methyl)-9-chloro-7-(5-fluoro-1H-indol-1-yl)-2,3,4,5-tetrahydrobenzo[f][1,4]oxazepine] | 1000 to 5000
10 | Cn1ncc(CN2CCOc3c(Cl)cc(-n4ccc5cc(F)ccc54)cc3C2)cc1=O [II-32, 5-((9-chloro-7-(5-fluoro-1H-indol-1-yl)-2,3-dihydrobenzo[f][1,4]oxazepin-4(5H)-yl)methyl)-2-methylpyridazin-3(2H)-one] | 100 to 500
11 | COc1ncc(CN2CCOc3c(Cl)cc(-n4ncc5cc(F)ccc54)cc3C2)cn1 [II-33, 9-chloro-7-(5-fluoro-1H-indazol-1-yl)-4-((2-methoxypyrimidin-5-yl)methyl)-2,3,4,5-tetrahydrobenzo[f][1,4]oxazepine] | < 100
12 | Nc1ncc(CN2CCOc3c(Cl)cc(-n4ccc5c(F)c(F)ccc54)cc3C2)cn1 [II-36, 5-((9-chloro-7-(4,5-difluoro-1H-indol-1-yl)-2,3-dihydrobenzo[f][1,4]oxazepin-4(5H)-yl)methyl)pyrimidin-2-amine] | < 100
13 | O=c1ncc(CN2CCOc3c(Cl)cc(-c4coc5cc(F)ccc45)cc3C2)c[nH]1 [II-38, 5-((9-chloro-7-(6-fluorobenzofuran-3-yl)-2,3-dihydrobenzo[f][1,4]oxazepin-4(5H)-yl)methyl)pyrimidin-2(1H)-one] | < 100
14 | COc1ncc(CN2CCOc3c(Cl)cc(-c4coc5c(F)c(F)ccc45)cc3C2)cn1 [II-39, 9-chloro-7-(6,7-difluorobenzofuran-3-yl)-4-((2-methoxypyrimidin-5-yl)methyl)-2,3,4,5-tetrahydrobenzo[f][1,4]oxazepine] | 100 to 500
15 | O=C(O)c1ncc(CN2CCOc3c(Cl)cc(-n4ccc5c(F)c(F)ccc54)cc3C2)cn1 [II-41, 5-((9-chloro-7-(4,5-difluoro-1H-indol-1-yl)-2,3-dihydrobenzo[f][1,4]oxazepin-4(5H)-yl)methyl)pyrimidine-2-carboxylic acid] | < 100
16 | Fc1ccc2c(ccn2-c2cc(Cl)c3c(c2)CN(Cc2cnc(-c4nnn[nH]4)nc2)CCO3)c1F [II-42, 4-((2-(1H-tetrazol-5-yl)pyrimidin-5-yl)methyl)-9-chloro-7-(4,5-difluoro-1H-indol-1-yl)-2,3,4,5-tetrahydrobenzo[f][1,4]oxazepine] | < 100
17 | Fc1ccc2c(-c3cc(Cl)c4c(c3)CN(Cc3cnc(-c5nnn[nH]5)nc3)CCO4)coc2c1 [II-43, 4-((2-(1H-tetrazol-5-yl)pyrimidin-5-yl)methyl)-9-chloro-7-(6-fluorobenzofuran-3-yl)-2,3,4,5-tetrahydrobenzo[f][1,4]oxazepine] | < 100
18 | O=c1ncc(CN2CCOc3c(Cl)cc(-n4ncc5cc(F)ccc54)cc3C2)c[nH]1 [II-44, 5-((9-chloro-7-(5-fluoro-1H-indazol-1-yl)-2,3-dihydrobenzofuran[f][1,4]oxazepin-4(5H)-yl)methyl)pyrimidin-2(1H)-one] | < 100
19 | COc1ncc(CN2CCOc3c(Cl)cc(-c4csc5cc(F)ccc45)cc3C2)cn1 [II-46, 9-chloro-7-(6-fluorobenzo[b]thiophen-3-yl)-4-((2-methoxypyrimidin-5-yl)methyl)-2,3,4,5-tetrahydrobenzo[f][1,4]oxazepine] | 100 to 500
20 | O=c1ncc(CN2CCOc3c(Cl)cc(-c4csc5cc(F)ccc45)cc3C2)c[nH]1 [II-47, 5-((9-chloro-7-(6-fluorobenzo[b]thiophen-3-yl)-2,3-dihydrobenzo[f][1,4]oxazepin-4(5H)-yl)methyl)pyrimidin-2(1H)-one] | < 100
21 | COc1ncc(CN2CCOc3c(Cl)cc(-c4coc5cc(F)ccc45)cc3C2)cn1 [II-48, 9-chloro-7-(6-fluorobenzofuran-3-yl)-4-((2-methoxypyrimidin-5-yl)methyl)-2,3,4,5-tetrahydrobenzo[f][1,4]oxazepine] | < 100
22 | COc1ncc(CN2CCOc3c(Cl)cc(-n4cnc5cc(F)ccc54)cc3C2)cn1 [II-49, 9-chloro-7-(5-fluoro-1H-benzo[d]imidazol-1-yl)-4-((2-methoxypyrimidin-5-yl)methyl)-2,3,4,5-tetrahydrobenzo[f][1,4]oxazepine] | 500 to 1000
23 | CS(=O)(=O)Nc1cc(CN2CCOc3c(Cl)cc(-n4ccc5cc(F)ccc54)cc3C2)cnn1 [II-52, N-(5-((9-chloro-7-(5-fluoro-1H-indol-1-yl)-2,3-dihydrobenzo[f][1,4]oxazepin-4(5H)-yl)methyl)pyridazin-3-yl)methanesulfonamide] | < 100
24 | CCOC(=O)c1ncc(CN2CCOc3c(Cl)cc(-n4ccc5c(F)c(F)ccc54)cc3C2)cn1 [II-74, ethyl 5-((9-chloro-7-(4,5-difluoro-1H-indol-1-yl)-2,3-dihydrobenzo[f][1,4]oxazepin-4(5H)-yl)methyl)pyrimidine-2-carboxylate] | < 100
